Source: patent US11584759B2, “Macrocyclic kinase inhibitor” (HITGEN INC., priority 2018, dated 2023)

What was measured:
TRKA Protein (wild type) = target: T1, TRKA Protein (wild type) (Homo sapiens, UniProt P04629); assay: Detection of TRK inhibitory activity (ADP-Glo kinase assay), TRKA wild type; assay type: biochemical; settings: 35 min at room temperature
T1 construct: purchased abcam ab60887
Protocol: (§1) An enzyme reaction buffer was prepared containing 25 mM MOPS, 5 mM MgCl2, 500 μM DTT and 0.005% Triton, and then adjusted to pH 7.5.
(§2) The test compound was diluted with DMSO to 200 times of the desired final concentration, and mixed evenly, then 3 μL of the solution was pipetted to 117 μL of enzyme reaction buffer and mixed thoroughly. Then, 3 μL of the enzyme reaction buffer containing the test compound was pipetted to a 96-well PCR plate. The positive and negative control wells were filled with 3 μL of enzyme reaction buffer containing 2.5% DMSO, respectively. TRK protein was diluted to 0.4 ng/μL with the enzyme reaction buffer, and 6 μL of diluted TRK protein was added to each well except for the well for the blank control group, in which 6 μL of the enzyme reaction buffer was added. The reaction plate was centrifuged at 1000 rpm/min for 1 minute, and the compound and TRK were pre-incubated at room temperature for 10 minutes. A mixed solution with ATP at a concentration of 160 μM and substrate at a concentration of 1 μM was prepared with the enzyme reaction buffer, and 6 μL of the mixed solution was added to each reaction well. The reaction plate was centrifuged at 1000 rpm/min for 1 minute, and incubated at room temperature for 35 minutes. After the enzyme reaction was completed, 15 μL of ADP-Glo was added to each reaction well. The reaction plate was centrifuged at 1000 rpm/min for 1 minute, and incubated at room temperature for 40 minutes. Then 15 μL of the reaction solution from each well was transferred to a 384-well plate, and then 15 μL of detection substrate was added to each corresponding well of the 384-well plate. The 384-well plate was centrifuged at 1000 rpm/min for 1 minute, and incubated at room temperature for 40 minutes. After the reaction, a microplate reader was used to read the cold luminescence signal value in the 384-well plate.
(§3) The residual viability percentage of each concentration was calculated with the following formula: Residual viability (%)=100*(Lumincompond−Luminblank control)/(Luminpostive control−Luminblank control)
(§4) Then, GraphPad 5.0 was fitted to the effect curve to calculate the IC50 value.

[1] = system: Ba/F3 ETV6-NTRK3-G623R cell line; assay: Cell experiment, CellTiter-Glo viability, Ba/F3 ETV6-NTRK3-G623R; assay type: cell-based; settings: Mus musculus, BaF3, 72 hours, CTG
Protocol: (§5) Cell culture and seeding: (1) cells in logarithmic growth phase were harvested and counted using a […]. The cell viability was detected by trypan blue exclusion method to ensure that the cell viability was above 90%. (2) The cell concentration was adjusted; and 90 μl of cell suspension was added to the 96-well plate.
(§6) 10 μl of drug solution was added to each well in a 96-well plate inoculated with cells, triplicate per concentration.
(§7) End-point for reading: (1) The CTG reagent was thawed and the cell plate was equilibrated to room temperature for 30 minutes. (2) Equal volume of CTG solution was added to each well. (3) The plated was shaken on an orbital shaker for 5 minutes to lyse the cells. (4) The cell plate was placed at room temperature for 20 minutes to stabilize the cold light signal. (5) The cold light value was read.
(§8) GraphPad Prism 7.0 software was used to analyze the data, and nonlinear S-curve regression was fitted the data to get the dose-effect curve, and the IC50 value was calculated therefrom. Cell survival (%)=(Lumtest drug−Lumculture control)/(Lumcell control−Lumculture control)×100%.

NIH-3T3ΔTRKA G595R cells = assay: Drug Efficacy Test 1: tumor growth in Balb/c Nude mice; assay type: in vivo, mouse; settings: subcutaneous NIH-3T3ΔTRKA G595R tumors, start at about 100 mm^3, FIG. 1
Protocol: NIH-3T3 ATRKA G595R cells are polyclonal stable transfected cell lines constructed based on TRKA mutation by our laboratory. Balb/c Nude mice, female, 6-8 weeks old, weighing 18-22 grams, were purchased from Chengdu Dashuo Experimental Animal Co., Ltd.
(§9) NIH-3T3 ATRKA G595R cells in the logarithmic growth phase were collected, counted and adjusted to a suitable cell density. 0.1 mL cell suspension (2×10^6 cells) was inoculated subcutaneously into the right back of each mouse. When the average tumor volume reached about 100 mm^3, mice were randomly divided into groups (m=6) for administrating the compound of Example 1 in solvent PEG400:HPBCD (20%, W/V) (3:1).
(§10) At the end of the experiment, all surviving experimental animals were sacrificed.
(§11) Tumor volume was calculated using formula: V=0.5 (a×b^2), wherein a and b represent the long and short diameters of the tumor, respectively.
(§12) Graph Pad Prism 6.0 was used for graph analysis.

TRKA (G667C) = TRKA (G667C) (Homo sapiens, UniProt P04629, G667C); assay: Detection of TRK inhibitory activity (ADP-Glo kinase assay), TRKA (G667C); assay type: biochemical
Protocol: as §1, §2, §3, §4

[2] = system: BA/F3 ETV6-NTRK3 G623R cells; assay: Drug Efficacy Test 2: tumor growth in Balb/c Nude mice; assay type: in vivo, mouse; settings: subcutaneous BA/F3 ETV6-NTRK3 G623R tumors, start at about 100 mm^3, FIG. 2
Protocol: BA/F3 ETV6-NTRK3 G623R cells are polyclonal stable transfected cell lines constructed based on TRKA mutation by our laboratory. Balb/c Nude mice, female, 6-8 weeks old, weighing 18-22 grams, were purchased from Chengdu Dashuo Experimental Animal Co., Ltd.
as §9, with “BA/F3 ETV6-NTRK3 G623R” for “NIH-3T3 ATRKA G595R”, “in” for “in the”, “(m=5)” for “(m=6)”
as §10, §11
GraphPadPrism6.0 was used for graph analysis.

[3] = system: Ba/F3 LMNA-NTRK1-F589L cell line; assay: Cell experiment, CellTiter-Glo viability, Ba/F3 LMNA-NTRK1-F589L; assay type: cell-based; settings: Mus musculus, BaF3, 72 hours, CTG
Protocol: as §5, §6, §7, §8

[4] = system: Ba/F3 LMNA-NTRK1-G595R cell line; assay: Cell experiment, CellTiter-Glo viability, Ba/F3 LMNA-NTRK1-G595R; assay type: cell-based; settings: Mus musculus, BaF3, 72 hours, CTG
Protocol: as §5, §6, §7, §8

[5] = system: BA/F3 ETV6-NTRK3 G623R cells; assay: Drug Efficacy Test 3: tumor growth in SCID mice; assay type: in vivo, mouse; settings: subcutaneous BA/F3 ETV6-NTRK3 G623R tumors, start at about 300 mm^3, FIG. 3
Protocol: BA/F3 ETV6-NTRK3 G623R cells are polyclonal stable transfected cell lines constructed based on TRKA mutation by our laboratory. SCID mice, female, 6-8 weeks old, weighing 18-22 grams, were purchased from Chengdu Dashuo Experimental Animal Co., Ltd.
as §9, with “BA/F3 ETV6-NTRK3 G623R” for “NIH-3T3 ATRKA G595R”, “in” for “in the”, “300” for “100”, “(m=5)” for “(m=6)”
as §10, §11, §12

Chain of TRKA (G667C) (P04629 33-796 G667C): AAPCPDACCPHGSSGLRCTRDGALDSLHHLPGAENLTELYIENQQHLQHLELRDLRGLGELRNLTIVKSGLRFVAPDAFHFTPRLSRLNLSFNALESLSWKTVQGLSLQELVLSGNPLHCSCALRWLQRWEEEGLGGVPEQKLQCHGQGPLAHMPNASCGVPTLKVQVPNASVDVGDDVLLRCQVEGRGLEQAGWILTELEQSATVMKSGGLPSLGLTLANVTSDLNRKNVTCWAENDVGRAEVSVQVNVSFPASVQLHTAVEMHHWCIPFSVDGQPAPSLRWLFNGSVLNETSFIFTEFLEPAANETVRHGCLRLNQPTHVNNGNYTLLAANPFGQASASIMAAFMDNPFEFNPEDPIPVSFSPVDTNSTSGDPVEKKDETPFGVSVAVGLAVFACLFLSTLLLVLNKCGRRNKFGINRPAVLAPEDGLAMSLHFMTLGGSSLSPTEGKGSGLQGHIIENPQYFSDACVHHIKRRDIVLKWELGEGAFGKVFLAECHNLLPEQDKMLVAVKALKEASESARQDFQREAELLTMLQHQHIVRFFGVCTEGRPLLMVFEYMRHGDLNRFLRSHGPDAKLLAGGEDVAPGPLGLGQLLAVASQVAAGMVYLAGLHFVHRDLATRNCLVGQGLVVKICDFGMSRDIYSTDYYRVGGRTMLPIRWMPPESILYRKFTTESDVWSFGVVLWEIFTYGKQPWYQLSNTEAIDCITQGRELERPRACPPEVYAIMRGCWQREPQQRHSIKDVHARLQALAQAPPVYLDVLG
T1 sequence (P04629 33-796): as the sequence (P04629 33-796 G667C) above, with C635G counted along it

Row | IC50 (TRKA Protein (wild type)) [nM] | IC50 [1] [nM] | IC90 [1] [nM] | IC50 (TRKA (G667C)) [nM] | IC50 [3] [nM] | IC90 [3] [nM] | IC50 [4] [nM] | IC90 [4] [nM] | SMILES | Inhibition of tumor growth (tumor volume) (NIH-3T3ΔTRKA G595R cells) | Inhibition of tumor growth (tumor volume) [2] | Inhibition of tumor growth (tumor volume) [5]
1 | < 50 | 17.3 | 42.3 | < 50 | 3.8 | 17.1 | 2.5 | 83.2 | C[C@@H]1CCOc2ccc(F)cc2[C@H]2CCCN2c2ccc3ncc(C#N)c(c3n2)N1 [Example 1, (6R,16R)-9-fluoro-16-methyl-3-oxa-2,17,21,25-tetraazapentacyclo [16.6.2.0^2,^6.0^7,^12.0^22,^26]hexacosane-1(25),7,9,11,18(26),19,21,23-octane-19-nitrile] | inhibits the growth | inhibits the growth | inhibits the growth
2 |  | 466 | 843 |  | < 1 | 1.4 | 1730 | 6120 | CN1CCN(c2ccc(C(=O)Nc3n[nH]c4ccc(Cc5cc(F)cc(F)c5)cc34)c(NC3CCOCC3)c2)CC1 [RXDX-101, reference compound] |  |  | 
